Reference: patent US20260232767A1, “INTERLEUKIN-23 RECEPTOR ANTAGONIST PEPTIDES FOR USE IN THE TREATMENT OF PSORIASIS” (Janssen Pharmaceutica NV, priority 2023, published 2026)
Read-outs that look alike come from different tables or passages of the source.

Assays:
scalp psoriasis = assay: Scalp Specific IGA (ss-IGA), Example 1; format: in vivo, human; details: Week 16
Procedure: The Scalp Specific Investigator Global Assessment (ss-IGA) instrument is used to evaluate the disease severity of scalp psoriasis. The lesions are assessed in terms of the clinical signs of redness, thickness, and scaliness which are scored as: absence of disease (0), very mild disease (1), mild disease (2), moderate disease (3), and severe disease (4).
Clinician-reported outcomes including Psoriasis Area and Severity Index (PASI), Body Surface Area (BSA), Investigator's Global Assessment (IGA), Nail Psoriasis Area and Severity Index (NAPSI), Fingernail Physician's Global Assessment (f-PGA), Static Physician's Global Assessment of Genitalia (s-PGA-G), Physician's Global Assessment of Hands and/or Feet (hf-PGA), and Scalp Specific Investigator Global Assessment (ss-IGA) were obtained at Week 0, 8, and 16. PASI and IGA were also obtained at Weeks 1, 2, 4, and 12, and at Week 20, four weeks after the administration of the tablets has stopped.
Proportion of Patients Achieving scalp-specific (ss)-IGA score 0/1 and ss-IGA score 0 and With at Least a 2-Grade Improvement from baseline at Week 16.

IL-17F = assay: Serum IL-17F immunoassay; format: in vivo, human; details: all treatment groups relative to placebo
Procedure: To evaluate psoriasis relevant systemic biomarkers (Beta-defensin 2 (BD-2), IL-17A, IL-17F, and IL-22), protein concentrations were measured in serum using validated immunoassays. The IL-17A (Catalog #03-0159-00) and IL-17F (Catalog #03-0164-00) assays used are commercially available SMC™-based high sensitivity immunoassays produced by the EMD Millipore Corporation. The manufacturer's protocols were followed and analyzed on the Erenna® instrument platform except for the use of 11 μL Elution Buffer B. While the IL-22 assay is also based on the SMC™ platform and run on the Erenna instrument, the assay was developed internally as a coated plate-based assay. The development and optimization of the BD-2 assay was done on the Meso Scale Discovery on the electrochemiluminescence-based platform, a division of Meso Scale Diagnostics LLC (MSD). For all assays, concentration adjustments were made to values measuring below empirically defined LLOQ or empirically defined ULOQ values. Assay QC verified performance of generated standard curves (average concentration recovery & CV of technical replicates) and control samples (inter-assay plate agreement (CV)).
Serum levels of psoriasis disease biomarkers BD-2, IL-22, IL-17A, and IL-17F relative to baseline were analyzed in patients who received placebo or the compound of Formula (I) and compared to clinical response. […]

[1] = tested on: subjects with moderate-to-severe plaque psoriasis; assay: Treatment disposition, Example 2; format: in vivo, human
[2] = tested on: anti-drug antibodies to the IL-23 receptor antagonist peptide; details: for Subjects negative for treatment-emergent anti-peptide antibodies, % / Subjects positive for treatment-emergent anti-peptide antibodies, %: through Week 16 or Follow-up Week 20; for Subjects positive for treatment-emergent anti-peptide antibodies at any time, %: through Week 16
[3] = tested on: neutralizing antibodies to the IL-23 receptor antagonist peptide; details: through Week 16
[4] = 25 mg BID, Week 16 to Week 52, N=40
[5] = 25 mg BID, through Week 52, N=41
[6] = 25 mg QD, Week 16 to Week 52, N=35
[7] = 25 mg QD, through Week 52, N=43
[8] = 50 mg QD, through Week 52, N=43
[9] = 100 mg BID, through Week 52, N=42
[10] = 100 mg QD, Week 16 to Week 52, N=40
[11] = 100 mg QD, through Week 52, N=43
[12] = Combined, Week 16 to Week 52, N=227
[13] = Combined, through Week 52, N=247

CC(=O)NCCCC[C@@H]1NC(=O)[C@H](Cc2c[nH]c3c(C)cccc23)NC(=O)[C@H]([C@@H](C)O)NC(=O)[C@H](CC(N)=O)NC(=O)[C@@H](NC(C)=O)C(C)(C)SSC(C)(C)[C@@H](C(=O)N[C@@H](Cc2ccc(OCCN)cc2)C(=O)N[C@@H](Cc2ccc3ccccc3c2)C(=O)NC2(C(=O)N[C@@H](CCC(=O)O)C(=O)N[C@@H](CC(N)=O)C(=O)N[C@@H](Cc3cccnc3)C(=O)N(C)CC(N)=O)CCOCC2)NC1=O [IL-23 receptor antagonist peptide, Ac-[Pen]*-N-T-[W(7-Me)]-[Lys(Ac)]-[Pen]*-Phe[4-(2-aminoethoxy)]-[2-Nal]-[THP]-E-N-[3-Pal]-Sarc-NH2 (*[Pen]-[Pen]* formdisulfidebond)]
ss-IGA score 0/1 and ≥2-grade improvement from baseline, % (scalp psoriasis; 25 mg BID, baseline ss-IGA score ≥2, n=32): (65.6) %
ss-IGA score 0/1 and ≥2-grade improvement from baseline, % (scalp psoriasis; 25 mg QD, baseline ss-IGA score ≥2, n=37): (32.4) %
ss-IGA score 0/1 and ≥2-grade improvement from baseline, % (scalp psoriasis; 50 mg QD, baseline ss-IGA score ≥2, n=40): 70.0%
ss-IGA score 0/1 and ≥2-grade improvement from baseline, % (scalp psoriasis; 100 mg BID, baseline ss-IGA score ≥2, n=36): 75.0%
ss-IGA score 0/1 and ≥2-grade improvement from baseline, % (scalp psoriasis; 100 mg QD, baseline ss-IGA score ≥2, n=40): 67.5%
Response rate ss-IGA score 0/1 with ≥2-grade improvement from baseline (scalp psoriasis; all doses vs placebo): significantly higher than placebo
IL-17F serum levels (IL-17F): Statistically significant reductions
Discontinued: Adverse Event, % [1, 4]: (2.5%)
Discontinued: Other Adverse Event, % [1, 4]: (2.5%)
Discontinued: Adverse Event, % [1, 5]: (2.4%)
Discontinued: Other Adverse Event, % [1, 5]: (2.4%)
Discontinued: Adverse Event, % [1, 6]: (2.9%)
Discontinued: Other Adverse Event, % [1, 6]: (2.9%)
Discontinued: Adverse Event, % [1, 7]: (7.0%)
Discontinued: Other Adverse Event, % [1, 7]: (7.0%)
Discontinued: Adverse Event, % [1, 8]: (4.7%)
Discontinued: Other Adverse Event, % [1, 8]: (4.7%)
Discontinued: Adverse Event, % [1, 9]: (2.4%)
Discontinued: Other Adverse Event, % [1, 9]: (2.4%)
Discontinued: Adverse Event, % [1, 10]: (2.5%)
Discontinued: Other Adverse Event, % [1, 10]: (2.5%)
Discontinued: Adverse Event, % [1, 11]: (4.7%)
Discontinued: Other Adverse Event, % [1, 11]: (4.7%)
Discontinued: Adverse Event, % [1, 12]: (1.3%)
Discontinued: Other Adverse Event, % [1, 12]: (1.3%)
Discontinued: Adverse Event, % [1, 13]: (3.6%)
Discontinued: Other Adverse Event, % [1, 13]: (3.6%)
Footnote d group: Baseline titers 1:50, n subjects ([2]; 25 mg BID, N=41): 0
Peak titer group <50, n subjects ([2]; 25 mg BID, N=41): 0
Peak titer group >50-<100, n subjects ([2]; 25 mg BID, N=41): 0
Peak titer group ≥100-<1000, n subjects ([2]; 25 mg BID, N=41): 0
Peak titer group ≥1000, n subjects ([2]; 25 mg BID, N=41): 0
Positive at baseline: Baseline titers 1:50, n subjects ([2]; 25 mg BID, N=41): 0
Treatment-boosted (footnote c): Baseline titers 1:50, n subjects ([2]; 25 mg BID, N=41): 0
Treatment-emergent: Peak titers 1:50, n subjects ([2]; 25 mg BID, N=41): 0
Subjects negative for treatment-emergent anti-peptide antibodies, % ([2]; 25 mg BID, N=41): 100%
Footnote d group: Baseline titers 1:50, n subjects ([2]; 25 mg QD, N=42): 0
Peak titer group <50, n subjects ([2]; 25 mg QD, N=42): 1
Peak titer group >50-<100, n subjects ([2]; 25 mg QD, N=42): 0
Peak titer group ≥100-<1000, n subjects ([2]; 25 mg QD, N=42): 0
Peak titer group ≥1000, n subjects ([2]; 25 mg QD, N=42): 0
Positive at baseline: Baseline titers 1:50, n subjects ([2]; 25 mg QD, N=42): 0
Treatment-boosted (footnote c): Baseline titers 1:50, n subjects ([2]; 25 mg QD, N=42): 0
Treatment-emergent: Peak titers 1:50, n subjects ([2]; 25 mg QD, N=42): 1
Subjects positive for treatment-emergent anti-peptide antibodies at any time, % ([2]; 25 mg QD, N=42): (2.4%)
Subjects negative for treatment-emergent anti-peptide antibodies, % ([2]; 25 mg QD, N=42): 97.6%
Subjects positive for treatment-emergent anti-peptide antibodies, % ([2]; 25 mg QD, N=42): 2.4%
Footnote d group: Baseline titers 1:50, n subjects ([2]; 50 mg QD, N=43): 3
Peak titer group <50, n subjects ([2]; 50 mg QD, N=43): 1
Peak titer group >50-<100, n subjects ([2]; 50 mg QD, N=43): 0
Peak titer group ≥100-<1000, n subjects ([2]; 50 mg QD, N=43): 0
Peak titer group ≥1000, n subjects ([2]; 50 mg QD, N=43): 0
Positive at baseline: Baseline titers 1:50, n subjects ([2]; 50 mg QD, N=43): 3
Subjects positive at baseline who were treatment-boosted for antibodies (footnote d: titers did not increase 2-fold), % ([2]; 50 mg QD, N=43): 7.0%
Subjects positive for anti-peptide antibodies at baseline, % ([2]; 50 mg QD, N=43): 7.0%
Treatment-boosted (footnote c): Baseline titers 1:50, n subjects ([2]; 50 mg QD, N=43): 0
Treatment-emergent: Peak titers 1:50, n subjects ([2]; 50 mg QD, N=43): 1
Subjects positive for treatment-emergent anti-peptide antibodies at any time, % ([2]; 50 mg QD, N=43): (2.3%)
Subjects negative for treatment-emergent anti-peptide antibodies, % ([2]; 50 mg QD, N=43): 97.7%
Subjects positive for treatment-emergent anti-peptide antibodies, % ([2]; 50 mg QD, N=43): 2.3%
Footnote d group: Baseline titers 1:50, n subjects ([2]; 100 mg BID, N=41): 0
Peak titer group <50, n subjects ([2]; 100 mg BID, N=41): 3
Peak titer group >50-<100, n subjects ([2]; 100 mg BID, N=41): 0
Peak titer group ≥100-<1000, n subjects ([2]; 100 mg BID, N=41): 0
Peak titer group ≥1000, n subjects ([2]; 100 mg BID, N=41): 0
Positive at baseline: Baseline titers 1:50, n subjects ([2]; 100 mg BID, N=41): 0
Treatment-boosted (footnote c): Baseline titers 1:50, n subjects ([2]; 100 mg BID, N=41): 0
Treatment-emergent: Peak titers 1:50, n subjects ([2]; 100 mg BID, N=41): 3
Subjects positive for treatment-emergent anti-peptide antibodies at any time, % ([2]; 100 mg BID, N=41): (7.3%)
Subjects negative for treatment-emergent anti-peptide antibodies, % ([2]; 100 mg BID, N=41): 92.7%
Subjects positive for treatment-emergent anti-peptide antibodies, % ([2]; 100 mg BID, N=41): 7.3%
Footnote d group: Baseline titers 1:50, n subjects ([2]; 100 mg QD, N=42): 0
Peak titer group <50, n subjects ([2]; 100 mg QD, N=42): 3
Peak titer group >50-<100, n subjects ([2]; 100 mg QD, N=42): 0
Peak titer group ≥100-<1000, n subjects ([2]; 100 mg QD, N=42): 0
Peak titer group ≥1000, n subjects ([2]; 100 mg QD, N=42): 0
Positive at baseline: Baseline titers 1:50, n subjects ([2]; 100 mg QD, N=42): 0
Treatment-boosted (footnote c): Baseline titers 1:50, n subjects ([2]; 100 mg QD, N=42): 0
Treatment-emergent: Peak titers 1:50, n subjects ([2]; 100 mg QD, N=42): 3
Subjects positive for treatment-emergent anti-peptide antibodies at any time, % ([2]; 100 mg QD, N=42): (7.1%)
Subjects negative for treatment-emergent anti-peptide antibodies, % ([2]; 100 mg QD, N=42): 92.9%
Subjects positive for treatment-emergent anti-peptide antibodies, % ([2]; 100 mg QD, N=42): 7.1%
Participants positive for ADA prior to the first dose (baseline) ([2]; 3 of 209, all 50 mg QD group): 1.4%
Footnote d group: Baseline titers 1:50, n subjects ([2]; Combined doses, N=209): 3
Peak titer group <50, n subjects ([2]; Combined doses, N=209): 8
Peak titer group >50-<100, n subjects ([2]; Combined doses, N=209): 0
Peak titer group ≥100-<1000, n subjects ([2]; Combined doses, N=209): 0
Peak titer group ≥1000, n subjects ([2]; Combined doses, N=209): 0
Positive at baseline: Baseline titers 1:50, n subjects ([2]; Combined doses, N=209): 3
Subjects positive at baseline who were treatment-boosted for antibodies (footnote d: titers did not increase 2-fold), % ([2]; Combined doses, N=209): (1.4%)
Subjects positive for anti-peptide antibodies at baseline, % ([2]; Combined doses, N=209): (1.4%)
Treatment-boosted (footnote c): Baseline titers 1:50, n subjects ([2]; Combined doses, N=209): 0
Treatment-emergent: Peak titers 1:50, n subjects ([2]; Combined doses, N=209): 8
Subjects positive for treatment-emergent anti-peptide antibodies at any time, % ([2]; Combined doses, N=209): (3.8%)
Subjects negative for treatment-emergent anti-peptide antibodies, % ([2]; Combined doses, N=209): (96.2%)
Subjects positive for treatment-emergent anti-peptide antibodies, % ([2]; Combined doses, N=209): (3.8%)
Subjects negative for neutralizing antibodies, % ([3]; 25 mg QD, 1 evaluable): (100%)
Subjects negative for neutralizing antibodies, % ([3]; 50 mg QD, 1 evaluable): (100%)
Subjects negative for neutralizing antibodies, % ([3]; 100 mg BID, 3 evaluable): (100%)
Subjects negative for neutralizing antibodies, % ([3]; 100 mg QD, 3 evaluable): (100%)
Subjects negative for neutralizing antibodies, % ([3]; Combined doses, 8 evaluable): (100%)
NAb result of ADA-positive samples [3]: negative
